From patent US10597649B2, “Tau protease compositions and methods of use” (Oligomerix, Inc., priority 2011, dated 2020)

Assays:
[1] = system: Tau 4R2N (amino acids 335-353) peptide substrate; assay: Peptide digest HPLC assay of tau protease activity; format: biochemical, human; details: with 11 μg tau trimer protease, 20 hr at 37° C.
Text: N-terminal sequencing of fragments using mass spectrometry identified autoproteolytic cut sites. In particular, cutting at the Lys340-Ser341 (340KS341) cut site occurred readily. Therefore, a 19-amino acid peptide corresponding to amino acids 335G to 353L of tau protein was synthesized that contained the KS cut site (340KS341). The reaction was monitored by reverse-phase high-pressure liquid chromatography (HPLC). […] An asterisk marks a non-specific contaminant that was used as a marker. […] 10 μg of tau peptide 335-353 ([…]) (SEQ ID NO:19) was custom synthesized by Genscript (Piscataway, N.J., USA) and 1 mg was dissolved in 1 mL of buffer (25 mM Tris-HCl pH 7.4). […] 32Karat™ LC-CE System, Beckman Coulter, Inc., (Indianapolis, Ind.)] using a linear gradient of acetonitrile in 0.1% TFA 0-60% acetonitrile on an analytical C18 column (12.5 cm×2.1 mm, 5 μm, (Supelco, Bellefonte, Pa., USA). 30 μg of peptide was incubated without tau protease as a negative control and analyzed with the same method;
Cleavage of the peptide substrate for tau protease, Tau 4R2N (amino acids 335-353) […] (SEQ ID NO.19), was used to monitor activity using reverse-phase HPLC. […] The large peak in the lower trace indicated intact peptide was greatly diminished in the upper trace and replaced with two smaller peaks F1 and F2 that represent fragments generated by TP-210. […]

[2] = system: Tau 4R1N oligomer mixture; assay: Cleavage of tau 4R1N by tau 4R2N trimer (SDS-PAGE); format: biochemical; details: overnight at 37° C.
Method: Tau oligomer formation leads to gain of toxic function and loss of function of tau monomer degraded by tau 4R2N trimer activity. Lane 1: Tau 4R2N monomer (0.1 μg); Lane 2: 1× Sample Buffer without reductant; Lane 3: 4R2N Trimer, no 4R1N; Lane 4:Tau 4R1N, no tau 4R2N trimer; Lane 5: Tau 4R2N trimer:tau 4R1N, 1:10; Lane 6: Tau 4R2N trimer:tau 4R1N trimer, 1:100; Lane 7: Tau 4R2N trimer:tau 4R1N 1:10. […] The arrows indicate fragments of tau 4R1N that are generated from tau 4R2N trimer protease activity. For the upper arrow, the fragments have the same apparent MW between the two isoforms, the lower arrow fragments differ with the fragment from tau 4R1N migrating faster than the fragment from tau 4R2N;

## tau 4R2N trimer: purified disulfide-mediated trimer species of recombinant human tau 4R2N
[1]
  completeness of the peptide cleavage reaction: more than 90%
[2]
  cutting of tau 4R1N: cuts tau (4R1N) monomer and tau dimer
